Assay results: patent US5366983A, “Use of quaternary ammonium compounds to remove salmonella contamination from meat products” (The Board of Trustees of The University of Arkansas, priority 1992, dated 1994)
Entries after “also recorded” stand apart in the source; their conditions may differ. Where two headings read alike, the source gives them in different places.

What was measured:
[1] = test system: Salmonella typhimurium TA98; test: Salmonella reversion assay after heating at 205° C., TA98; assay type: cell-based
Procedure: (§1) Test strains TA98 and TA100 were used. Again, mutagenicities were determined both in the absence and in the presence of the mammalian liver S9 activating system.
(§2) A response that was two times that of the solvent control was considered a positive response.

[2] = test system: Salmonella typhimurium TA100; test: Salmonella reversion assay after heating at 205° C., TA100; assay type: cell-based
Procedure: as §1, §2

[3] = test system: Salmonella typhimurium TA98; test: Salmonella reversion assay, TA98
Procedure: (§3) Test strains TA98 and TA100 were obtained from Bruce N. Ames (University of California, Berkley, Calif.). Mutagenicities were determined both in the absence of and in the presence of a mammalian liver S9 activating system. S9 is the 9000×g supernatant prepared from liver homogenates from Aroclor 1254 stimulated male Sprague Dawley rats. The S9 was purchased from Molecular Toxicology, Inc. (Anapolis, Md.).
(§4) Bacterial broth cultures were grown overnight at 37° with shaking in Oxoid Broth #2. For assays in the absence of S9, a 0.5 ml aliquot of 100 mM Sodium Phosphate Buffer, pH 7.4, was added to sterile 13×100 mm capped culture tubes. For assays in the presence of S9, a 0.5 ml aliquot of 10% S9 mix was added. The S9 mix consisted of 8 mM magnesium chloride, 33 mM potassium chloride, 5 mM glucose-6-phosphate, 4 mM NADP, 100 mM sodium phosphate, pH 7.4 and S9 in a concentration of approximately 1.46 mg protein/ml.
(§5) The culture tubes were placed in an ice bath and 0.1 ml of the bacterial suspension and 0.1 ml of a DMSO solution of the test compound were added. The mixture was vortexed gently and incubated at 37° for 20 minutes with shaking in a water bath. Molten top agar (2.0 ml) containing 0.5 mM histidine HCl and 0.5 mM biotin were added, and the mixture was vortexed gently and poured onto a minimal glucose plate. After allowing the agar to solidify, the plates were inverted and placed in a 37° incubator in the dark for 48 hours. The revertant (mutant) colonies were counted and the background lawn was examined on all plates. A response that was two times that of the DMSO solvent control was considered a positive response.

[4] = test system: Salmonella typhimurium TA100; test: Salmonella reversion assay, TA100
Procedure: as §3, §4, §5

[5] = test system: Salmonella typhimurium on chicken skin; test: Effect of surfactants on Salmonella attached to chicken skin, drumsticks (Tables F1-F4); details: 4° C.
Procedure: The following experiments utilizing chicken legs were conducted to determine the killing potential of a variety of surfactants against Salmonella on the skin and free in solutions. To this end, chicken legs obtained from the Department of Agriculture at the University of Arkansas, Fayetteville, were incubated for thirty minutes at room temperature with a 1:5000 dilution of Salmonella typhimurium. The chicken legs were removed five at a time and then rinsed twice in tap water to remove the unattached and excess Salmonella. The rinse water was sampled, diluted, and then plated onto XLD pour plates. […] The chicken legs were then removed and rinsed twice in tap water to remove the released Salmonella and excess chemicals. Rinses were then sampled, diluted, and then plated onto XLD pour plates.
The chicken legs were then individually washed with 100 ml sterile double distilled water, and then shaken fifty times. Samples of the wash H2 O were diluted and plated onto XLD pour plates. The chicken legs were further swabbed after the washing step above. The swabs were then plated onto the XLD plates. A set of wash samples were enriched with TT Broth Base Hajna and then plated onto XLD plates.
All of the samples were plated in 1 ml aliquots onto XLD pour plates. A positive control sample incubated in sterile double distilled water at 4° C. was run for each of the aforementioned conditions. Treatments occurred at both 4° C. and 25° C. The data is reported as the mean number of CFU/ml. The ratio in the table represents the number of chicken legs out of a sample of ten chicken legs producing the notated number of colonies, as indicated by the +, ++, +++, or ++++.

[6] = test system: Salmonella typhimurium on chicken skin; test: Prevention of attachment of Salmonella on excised chicken skin (Table F5); details: for CFU/ml on XLD agar: rinse water; for CFU/ml on XLD agar / Nitrocellulose lift (# of colonies): 30 minutes at room temperature; for Nitrocellulose lift (# of colonies): skin
Procedure: To determine the ability of surfactants to inhibit attachment or produce detachment of Salmonella, the following experiment was conducted. A hole was bored into the bottom of a 150 ml specimen cup. Chicken skin was excised from a drum stick and then placed over the cap of the specimen cup, and then the cap was screwed on. S. typhimurium was diluted 1:5000 with PBS or a surfactant. The surfactants were diluted appropriately. The skin was then inoculated with the solution containing the S. typhimurium and the surfactant for 30 minutes at room temperature.
Following incubation, the skin was washed. The rinse water was diluted appropriately in PBS and then plated onto XLD pour plates. The S. typhimurium was counted and reported as CFU/ml. The skin was swabbed so as to remove any remaining S. typhimurium using a nitroellulose lift and the CFU's/ml on the lift were also counted.

[7] = test system: Salmonella typhimurium ATCC 14028 attached to human buccal epithelial cells; assay type: cell-based; details: for adherence, mean value of attached bacteria: Table A-1
Procedure: Studies were conducted on the attachment of Salmonella typhimurium to human buccal epithelial cells using the modified procedure of Boussard et al., International J. Pharmaceutics 53: 253-256 (1989). In this study, the activities of cationic and anionic surfactant compounds as well as certain chelating agents were compared on the detachment of S. typhimurium from epithelial cells.
To this end, bacteria were grown on nutrient agar for 16 hours at 37° C. The cells were suspended in 0.008 M phosphate buffered saline (PBS) at pH 7.2 and washed two times at 4500 rpm for 10 minutes. The last suspension was diluted in PBS to obtain a cell concentration of 0.5 to 1×10^9 cells/ml. Human epithelial cells were obtained by swabbing the buccal surface of a healthy, nonsmoking donor. […] The number of living cells was estimated and the suspension diluted to 0.5 to 1×10^5 cells/ml.
Next, the suspension of the human buccal cells was mixed with an equal volume of the bacterial suspension (3.0 ml), or PBS (0.8 ml). Contact was allowed for 1.5 hours at 35° C. under agitation. The mixtures were then centrifuged for 10 minutes at 4500 rpm. Each suspension, 1.0 ml, was transferred into Eppendorf vials and washed with PBS at 1500 rpm for 10 minutes. After the washing, the cells were treated with 1.0 ml PBS or 1.0 ml of the test chemical solution. Treatment was performed by suspending and vortexing on a low speed for 30 seconds followed by centrifugation at 1500 rpm for 10 minutes.
After the treatment, the cells were washed once with PBS and then 20 μl of erythrosin B was added to each vial. The suspension was centrifuged at 1500 rpm for 10 minutes, and the cells were washed twice under the same conditions. The final pellet was suspended in 300 μl of PBS. This suspension was spread out onto microscope slides and dried overnight at room temperature. After counter staining with methylene blue, the slides were microscopically examined under oil immersion.

[8] = test system: Salmonella typhimurium ATCC 14028; test: Effect on viability of Salmonella in suspension (Tables D-1 to D-3); assay type: cell-based; details: for bacterial viability: Table D-3
Procedure: EC50 values for four of the compounds were calculated from the bactericidal activity of the compounds as a function of molar concentration by a nonlinear regression algorithm.
In addition to the quaternary ammonium compounds, the antimicrobial activities of chelating agents Na2 -EDTA and EGTA were investigated. Na2 -EDTA was purchased from the Sigma Chemical Company (St. Louis, Mo.). Na2 -EDTA was dissolved in 0.04 M PPB prior to the assay and further dilutions were made in the same buffer.
EGTA was purchased from the Aldrich Chemical Company (Milwaukee, Wis.). EGTA was dissolved in 0.04 M PPB according to the procedure described by Harafuji and Ogawa (J. Biochem. 87:1305-1312 (1980)). After heating EGTA for 15 minutes at 80° C., the pH was adjusted to 7.0 by addition of NaOH. EGTA was filter-sterilized using a 0.2 μm Acro disc filter (Gelman Sciences; Ann Arbor, Mich.) prior to the assay. Further dilutions were made in sterile PPB.

Nc1ccc2cc3ccccc3cc2c1 [2aminoanthracene, reference compound]
control reversion frequency ([1]; TA98, +S9, 2.5 μg/plate): 909 ± 85 Revertants/plate
control reversion frequency ([2]; TA100, +S9, 2.5 μg/plate): 1103 ± 84 Revertants/plate
control reversion frequency ([3]; TA98, +S9, 2.5 μg/plate): 901 ± 90 Revertants/plate
control reversion frequency ([4]; TA100, +S9, 2.5 μg/plate): 1497 ± 68 Revertants/plate

CC(C)(C)CC(C)(C)c1ccc(OCCOCC[N+](C)(C)Cc2ccccc2)cc1 [Benzethonium Chloride, reference compound]
Enrichment, chicken legs out of ten ([5]; 0.1%): 2/10
Rinse H2O ([5]; 0.1%): + (1-10)
Surfactant Solution ([5]; 0.1%): 0 CFU/ml
Swabs, chicken legs producing the notated number of colonies ([5]; 0.1%): 9/10
Swabs, colonies ([5]; 0.1%): ++ (11-100)
Wash H2O, chicken legs producing the notated number of colonies ([5]; 0.1%): 1/10
Wash H2O, colonies ([5]; 0.1%): + (1-10)
Enrichment, chicken legs out of ten ([5]; 0.5%): 0/10
Rinse H2O ([5]; 0.5%): + (1-10)
Surfactant Solution ([5]; 0.5%): 0 CFU/ml
Swabs, chicken legs producing the notated number of colonies ([5]; 0.5%): 8/10
Swabs, colonies ([5]; 0.5%): ++ (11-100)
Wash H2O, chicken legs producing the notated number of colonies ([5]; 0.5%): 0/10
Enrichment, chicken legs out of ten ([5]; 1.0%): 0/10
Rinse H2O ([5]; 1.0%): + (1-10)
Surfactant Solution ([5]; 1.0%): 0 CFU/ml
Swabs, chicken legs producing the notated number of colonies ([5]; 1.0%): 5/10
Swabs, colonies ([5]; 1.0%): ++ (11-100)
Wash H2O, chicken legs producing the notated number of colonies ([5]; 1.0%): 0/10
preventing attachment of S. typhimurium on chicken skin (in words) [6]: most effective in preventing Salmonella contamination of chicken skin
CFU/ml on XLD agar [6]: 10 CFU/ml
Nitrocellulose lift (# of colonies) [6]: 250 # of colonies

CCCCCCCCCCCCCCCC[n+]1ccccc1 [CPB, cetylpyridinium bromide]
adherence, mean value of attached bacteria ([7]; 10 ug/ml): 28 ± 28
adherence, mean value of attached bacteria ([7]; 25 ug/ml): 23 ± 17
adherence, mean value of attached bacteria ([7]; 50 ug/ml): 25 ± 10

C[C@H](CCC(=O)O)[C@H]1CC[C@H]2[C@@H]3CC[C@@H]4C[C@H](O)CC[C@]4(C)[C@H]3C[C@H](O)[C@]12C [Deoxycholic Acid, reference compound]
Enrichment, chicken legs out of ten ([5]; 0.1%): 10/10
Rinse H2O ([5]; 0.1%): + (1-10)
Surfactant Solution ([5]; 0.1%): ++ (11-100)
Swabs, chicken legs producing the notated number of colonies ([5]; 0.1%): 10/10
Swabs, colonies ([5]; 0.1%): ++ (11-100)
Wash H2O, chicken legs producing the notated number of colonies ([5]; 0.1%): 10/10
Wash H2O, colonies ([5]; 0.1%): ++ (11-100)
Enrichment, chicken legs out of ten ([5]; 0.5%): 10/10
Rinse H2O ([5]; 0.5%): + (1-10)
Surfactant Solution ([5]; 0.5%): + (1-10)
Swabs, chicken legs producing the notated number of colonies ([5]; 0.5%): 10/10
Swabs, colonies ([5]; 0.5%): + (1-10)
Wash H2O, chicken legs producing the notated number of colonies ([5]; 0.5%): 10/10
Wash H2O, colonies ([5]; 0.5%): ++ (11-100)
Enrichment, chicken legs out of ten ([5]; 1.0%): 10/10
Rinse H2O ([5]; 1.0%): + (1-10)
Surfactant Solution ([5]; 1.0%): ++ (11-100)
Swabs, chicken legs producing the notated number of colonies ([5]; 1.0%): 9/10
Swabs, colonies ([5]; 1.0%): ++ (11-100)
Wash H2O, chicken legs producing the notated number of colonies ([5]; 1.0%): 10/10
Wash H2O, colonies ([5]; 1.0%): ++ (11-100)
CFU/ml on XLD agar [6]: 90 CFU/ml

O=C(O)CN(CCOCCOCCN(CC(=O)O)CC(=O)O)CC(=O)O [EGTA, reference compound]
bacterial viability ([8]; 1,250 μg/ml): 1.55 ± 0.09 × 10^9 CFU/ml
bacterial viability ([8]; 2,500 μg/ml): 1.45 ± 0.03 × 10^9 CFU/ml
bacterial viability ([8]; 5,000 μg/ml): 1.51 ± 0.18 × 10^8 CFU/ml
bactericidal effect against S. typhimurium (in words) ([8]; viability testing in suspension): ineffective; also recorded: no bactericidal effect
effect on bacteria attached to the epithelial cells (in words) ([7]; chelating agents, Na2-EDTA at 1250 μg/ml): no significant effect

O=C1NCCN1c1ncc([N+](=O)[O-])s1 [Niridazole, reference compound]
control reversion frequency ([1]; TA98, -S9, 0.2 μg/plate): 126 ± 7 Revertants/plate
control reversion frequency ([2]; TA100, -S9, 0.2 μg/plate): 729 ± 30 Revertants/plate
control reversion frequency ([3]; TA98, -S9, 0.2 μg/plate): 358 ± 19 Revertants/plate
control reversion frequency ([4]; TA100, -S9, 0.2 μg/plate): 637 ± 57 Revertants/plate

Benzalkonium Chloride [reference compound]
Enrichment, chicken legs out of ten ([5]; 0.1%): 1/10
Rinse H2O ([5]; 0.1%): + (1-10)
Surfactant Solution ([5]; 0.1%): 0 CFU/ml
Swabs, chicken legs producing the notated number of colonies ([5]; 0.1%): 6/10
Swabs, colonies ([5]; 0.1%): + (1-10)
Wash H2O, chicken legs producing the notated number of colonies ([5]; 0.1%): 4/10
Wash H2O, colonies ([5]; 0.1%): + (1-10)
Enrichment, chicken legs out of ten ([5]; 0.5%): 1/10
Rinse H2O ([5]; 0.5%): 0 CFU/ml
Surfactant Solution ([5]; 0.5%): 0 CFU/ml
Swabs, chicken legs producing the notated number of colonies ([5]; 0.5%): 1/10
Swabs, colonies ([5]; 0.5%): + (1-10)
Wash H2O, colonies ([5]; 0.5%): 0 CFU/ml
Enrichment, chicken legs out of ten ([5]; 1.0%): 0/10
Rinse H2O ([5]; 1.0%): 0 CFU/ml
Surfactant Solution ([5]; 1.0%): 0 CFU/ml
Swabs, chicken legs producing the notated number of colonies ([5]; 1.0%): 1/10
Swabs, colonies ([5]; 1.0%): ++ (11-100)
Wash H2O, colonies ([5]; 1.0%): 0 CFU/ml
CFU/ml on XLD agar [6]: 0 CFU/ml
Nitrocellulose lift (# of colonies) [6]: OG(R)
